Data from patent publication US12686690B2, “Macrocyclic urea orexin receptor agonists” (Merck Sharp & Dohme LLC, priority 2020, dated 2026).

Biological target: T1, hOX2R (Homo sapiens, UniProt O43614)
T1 construct: expressed in transfected cells; host or cells: CHO cells (G418 selection)
T1 sequence (O43614 1-444): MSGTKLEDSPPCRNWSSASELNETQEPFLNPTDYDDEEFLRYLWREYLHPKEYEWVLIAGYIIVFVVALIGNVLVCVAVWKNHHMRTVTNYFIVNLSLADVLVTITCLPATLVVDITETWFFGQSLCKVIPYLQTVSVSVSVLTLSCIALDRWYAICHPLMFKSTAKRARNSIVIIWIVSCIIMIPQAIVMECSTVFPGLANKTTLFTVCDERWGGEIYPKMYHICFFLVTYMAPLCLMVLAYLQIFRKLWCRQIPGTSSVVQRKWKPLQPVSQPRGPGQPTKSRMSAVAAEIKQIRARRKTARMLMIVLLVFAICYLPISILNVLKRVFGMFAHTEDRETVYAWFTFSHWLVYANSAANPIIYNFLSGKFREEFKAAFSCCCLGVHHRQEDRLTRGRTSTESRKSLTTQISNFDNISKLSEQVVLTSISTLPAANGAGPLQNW
Assay: hOX2R IPone assay (orexin receptor agonism)
Type: cell-based
Conditions: IPone readout; for hOX2R_Ipone max %act: maximal activation; for EC50: orexin receptor agonist, read-out: hOX2R_IPone EC50

Row | SMILES | hOX2R_Ipone max %act | EC50
1 | CCN1C(=O)NCCCC(C)(C)COc2nc(cn3ccnc23)-c2cccc(c2)[C@H]1C [Example 13, (12R)-13-ethyl-12,19,19-tri-methyl-12,13,15, 16,17,18,19,20-octahydro-14H-6,22-(azeno)-11,7-(metheno) imidazo[2,1-c][1,4,13,15]oxa-triazacycloicosin-14-one] | 98.2% | 634 nM
2 | CCN1C(=O)N[C@@H](CCC(F)(F)F)CCCCCOc2nc(cn3ccnc23)C2=NC=C(O2)C1C (single isomer, unassigned) [Example 104B] | 101.1% | 64.1 nM
3 | CCN1C(=O)N[C@@H](CCC(F)(F)F)CCCCCOc2nc(cn3ccnc23)-c2cc(nc(C)n2)[C@H]1C [Example 119B, (12R,16R)-13-ethyl-9,12-dimethyl-16-(3,3,3-trifluoropropyl)-12,13,16,17,18,19,20,21-octahydro-6,23-(azeno)-11,7-(metheno)imidazo[2,1-c][1,4,8,10,13,15]oxapentaazacyclohenicosin-14(15H)-one] | 99.9% | 4.6 nM
4 | CCN1C(=O)N[C@@H](CCC(F)(F)F)CCCCOCc2nc(cn3ccnc23)-c2cc(ncc2OC)[C@H]1C [Example 144, (3R,7R,E)-4-ethyl-25-methoxy-3-methyl-7-(3,3,3-trifluoropropyl)-12-oxa-4,6-diaza-1(6,8)-imidazo[1,2-a]pyrazina-2(4,2)-pyridinacyclotridecaphan-5-one] | 101.4% | 6.09 nM
5 | CCN1C(=O)N[C@@H](c2nccnc2C)CCCCCOc2nc(cn3ccnc23)-c2cc(ncc2OC)[C@H]1C [Example 152, (3R,7R,E)-4-ethyl-25-methoxy-3-methyl-7-(3-methylpyrazin-2-yl)-13-oxa-4,6-diaza-1(6,8)-imidazo[1,2-a]pyrazina-2(4,2)-pyridinacyclotridecaphan-5-one] | 106.5% | 4.17 nM
6 | CCN1C(=O)N[C@@H](CCC(F)(F)F)CCCCCOc2nc(cn3ccnc23)C2=C(C3CC3)N=C(O2)[C@H]1C [Example 211, (9R,13R,E)-14-Cyclopropyl-12-ethyl-13-methyl-9-(3,3,3-trifluoropropyl)-3-oxa-10,12-diaza-1(5,2)-oxazola-2(6,8)-imidazo[1,2-a]pyrazinacyclotridecaphan-11-one] | 99.83% | 1.13 nM
7 | CCN1C(=O)N[C@@H](C(F)(F)F)CCCCOc2nc(cn3ncnc23)-c2cc(ncc2OC)C1C(F)(F)F (stereo partly drawn) [Example 37, (16R)-13-ethyl-8-methoxy-12,16-bis(trifluoromethyl)-12,13,15,16,17,18,19,20-octahydro-14H-6,22-(azeno)-11,7-(metheno) [1,2,4]triazolo[5,1-c][1,4,10,13,15]oxatetra-azacycloicosin-14-one] | 77.3% | 3010 nM
8 | CCN1C(=O)NC(C2CCOCC2)CCCCCOc2nc(cn3ccnc23)-c2cc(ncc2OC)[C@H]1C (single isomer, unassigned) [Example 68A] | 100.1% | 38.4 nM
9 | CCN1C(=O)N[C@@H](CC(F)(F)F)CCCCCOc2nc(cn3ccnc23)-c2cc(ncc2OC)[C@H]1C [Example 114, (12R,16R)-13-ethyl-8-methoxy-12-methyl-16-(2,2,2-trifluoroethyl)-12,13,16,17,18,19,20,21-octahydro-6,23-(azeno)-11,7-(metheno)imidazo[2,1-c][1,4,10,13,15]oxatetraazacyclohenicosin-14(15H)-one] | 100.9% | 0.7 nM
10 | CCN1C(=O)NC(CCC(F)(F)F)C(C)CCCOc2nc(cn3ccnc23)-c2cccc(c2)[C@H]1C (single isomer, unassigned) [Example 42B] | 99.1% | 156 nM
11 | CCN1C(=O)N[C@@H](CCC(F)(F)F)CCCCCCc2cc(cn3ccnc23)-c2nc(ccc2OC)[C@H]1C [Example 106, (12R,16R)-13-ethyl-8-methoxy-12-methyl-16-(3,3,3-trifluoropropyl)-12,13,15,16,17,18,19, 20,21,22-decahydro-14H-11,7-(azeno)-6,23-(metheno) imidazo[1,2-1][1,3,12] triazacyclohenicosin-14-one] | 99.7% | 1.7 nM
12 | CCN1C(=O)N[C@@H](CCC(F)(F)F)CCCCCOc2nc(cn3ccnc23)-c2cc(ncc2OC)[C@H]1C [Example 111, (3R,7R,E)-4-ethyl-25-methoxy-3-methyl-7-(3,3,3-trifluoropropyl)-13-oxa-4,6-diaza-1(6,8)-imidazo[1,2-a]pyrazina-2(4,2)-pyridinacyclotridecaphan-5-one] | 100.7% | 1.4 nM
13 | CCN1C(=O)N[C@@H](CCC(F)(F)F)C/C=C\COc2nc(cn3ncnc23)-c2cc(ncc2OC)C1C(F)(F)F (stereo partly drawn) [Example 33, (16S,18Z)-13-ethyl-8-methoxy-12-(trifluoromethyl)-16-(3,3,3-trifluoropropyl)-12,13,15,16,17,20-hexahydro-14H-6,22-(azeno)-11,7-(metheno) [1,2,4]triazolo[5,1-c] [1,4,10,13,15]oxatetra-azacycloicosin-14-one] | 98.8% | 335 nM
14 | CCN1C(=O)N[C@@H](CCC(F)(F)F)CCCCCCOc2nc(cn3ccnc23)-c2cc(ncc2OC)[C@H]1C [Example 109, (3R,7R,E)-4-ethyl-25-methoxy-3-methyl-7-(3,3,3-trifluoropropyl)-14-oxa-4,6-diaza-1(6,8)-imidazo[1,2-a]pyrazina-2(4,2)-pyridinacyclotetra-decaphan-5-one] | 102.4% | 1.5 nM
15 | CCN1C(=O)N[C@@H](CCC(F)(F)F)C/C=C/CCOc2nc(cc3cccnc23)-c2cc(ncc2OC)[C@H]1C [Example 163, (3R,7S,E)-4-ethyl-25-methoxy-3-methyl-7-(3,3,3-trifluoropropyl)-13-oxa-4,6-diaza-1(6,8)-naphthyridina-2(4,2)-pyridinacyclotridecaphan-9-en-5-one] | 104.4% | 10.9 nM
16 | CCN1C(=O)NC(CCC(F)(F)F)C(C)CCCOc2nc(cn3ccnc23)-c2cccc(c2)[C@H]1C (single isomer, unassigned) [Example 42D] | 98.8% | 3.6 nM
17 | CCN1C(=O)NCCN(C(C)C)CCOc2nc(cn3ccnc23)-c2cccc(c2)[C@H]1C [Example 3, (12R)-13-ethyl-12-methyl-18-(propan-2-yl)-12,13,15,16,17,18,19,20-octahydro-14H-6,22-(azeno)-11,7-(metheno)imidazo[1,2-r][1,4,7,9,18]oxatetraaza-cycloicosin-14-one] | 88.8% | 2500 nM
18 | CCN1C(=O)NC(CCC(F)(F)F)CCOCCOc2nc(cn3ccnc23)-c2cc(ncc2OC)[C@H]1C (single isomer, unassigned) [Example 6B] | 101.5% | 0.6 nM
19 | CCN1C(=O)N[C@@H](C)/C=C/CC2(CCOCC2)COc2nc(cn3ccnc23)-c2cc(ncc2OC)[C@H]1C [Example 222, (3′R,7'S,7′E,8′E)-4′-ethyl-5′-methoxy-3′,7′-dimethyl-2,3,5,6-tetrahydrospiro[pyran-4,11′-13-oxa-4,6-diaza-1(6,8)-imidazo[1,2-a]pyrazina-2(4,2)-pyridinacyclotridecaphanen]-8′-en-5′-one] | 61.55% | 760 nM
